Assay results: PubChem BioAssay AID1963873 (Molecular Pharmacology Branch, DTP, NCI, 2024)

System: 276233-004-R-J1-PDC KRAS spheroids with HUVEC/MSC, viability
Assay: Anticancer human tumor 276233-004-R-J1-PDC patient-derived colon adenocarcinoma cell line growth inhibition [KRAS2]
Conditions: for viability, T/C: stronger effect = lower value
Method in brief: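 KRAS-mutant tumor cells were grown as spheroids with HUVEC endothelial cells and human MSCs as stroma. Targeted agents were tested alone and with KRAS pathway inhibitors. Doses started at or near clinical Cmax, or 10 microM, descending half-log.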

[1] = curve of first compound, second compound 0.1 µM
[2] = curve of first compound, second compound 0.316 µM
[3] = curve of first compound, second compound 1 µM
[4] = curve of first compound, second compound 3.16 µM
[5] = second compound 0.1 µM, first compound 0.0316 µM
[6] = second compound 0.1 µM, first compound 0.1 µM
[7] = second compound 0.1 µM, first compound 0.316 µM
[8] = second compound 0.1 µM, first compound 1 µM
[9] = second compound 0.1 µM, first compound 3.16 µM
[10] = second compound 0.316 µM, first compound 0.0316 µM
[11] = second compound 0.316 µM, first compound 0.1 µM
[12] = second compound 0.316 µM, first compound 0.316 µM
[13] = second compound 0.316 µM, first compound 1 µM
[14] = second compound 0.316 µM, first compound 3.16 µM
[15] = second compound 1 µM, first compound 0.0316 µM
[16] = second compound 1 µM, first compound 0.1 µM
[17] = second compound 1 µM, first compound 0.316 µM
[18] = second compound 1 µM, first compound 1 µM
[19] = second compound 1 µM, first compound 3.16 µM
[20] = second compound 3.16 µM, first compound 0.0316 µM
[21] = second compound 3.16 µM, first compound 0.1 µM
[22] = second compound 3.16 µM, first compound 0.316 µM
[23] = second compound 3.16 µM, first compound 1 µM
[24] = second compound 3.16 µM, first compound 3.16 µM
[25] = curve of first compound, second compound 10 µM
[26] = second compound 0.1 µM, first compound 0.01 µM
[27] = second compound 0.316 µM, first compound 0.01 µM
[28] = second compound 1 µM, first compound 0.01 µM
[29] = second compound 3.16 µM, first compound 0.01 µM
[30] = second compound 10 µM, first compound 0.01 µM
[31] = second compound 10 µM, first compound 0.0316 µM
[32] = second compound 10 µM, first compound 0.1 µM
[33] = second compound 10 µM, first compound 0.316 µM
[34] = second compound 10 µM, first compound 1 µM
[35] = second compound 0.1 µM, first compound 0.00316 µM
[36] = second compound 0.316 µM, first compound 0.00316 µM
[37] = second compound 1 µM, first compound 0.00316 µM
[38] = second compound 3.16 µM, first compound 0.00316 µM
[39] = second compound 10 µM, first compound 0.00316 µM
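Also: cells exposed to agents for seven days before viability read.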
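For viability, T/C in this document: 100% = DMSO vehicle control wells and lower values mean fewer viable cells.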

Compound CC1OCC2(CCN(c3cnc(Sc4ccnc(N)c4Cl)c(N)n3)CC2)C1N (stereo unspecified) + C=CC(=O)N1CCN(c2nc(OCC3CCCN3C)nc3c2CCN(c2cccc4cccc(C)c24)C3)CC1CC#N has an IC50 (curve of first compound, second compound 0.0316 µM) greater than 10000 nM, an IC50 [1] greater than 10000 nM and an IC50 [2] greater than 10000 nM. For the same compound, the IC50 [3] was 9490 nM, the IC50 [4] was 521 nM and the viability, T/C (second compound 0.0316 µM, first compound 0.0316 µM) was 105%. The viability, T/C (second compound 0.0316 µM, first compound 0.1 µM) was 90.5%, the viability, T/C (second compound 0.0316 µM, first compound 0.316 µM) was 91.2% and the viability, T/C (second compound 0.0316 µM, first compound 1 µM) was 85.7%. It also gave a viability, T/C (second compound 0.0316 µM, first compound 3.16 µM) of 70.2%, a viability, T/C (second compound 0.0316 µM, first compound 10 µM) of 59.8% and a viability, T/C [5] of 98.2%. For the same compound, the viability, T/C [6] was 85%, the viability, T/C [7] was 81.5% and the viability, T/C [8] was 69.3%. The viability, T/C [9] was 68.7%, the viability, T/C (second compound 0.1 µM, first compound 10 µM) was 56.3% and the viability, T/C [10] was 102%. The viability, T/C [11] was 98.7%, the viability, T/C [12] was 83.4% and the viability, T/C [13] was 76.7%. It also gave a viability, T/C [14] of 67%, a viability, T/C (second compound 0.316 µM, first compound 10 µM) of 55.3% and a viability, T/C [15] of 98.2%. For the same compound, the viability, T/C [16] was 84.7%, the viability, T/C [17] was 81.2% and the viability, T/C [18] was 83.5%. The viability, T/C [19] was 63.5%, the viability, T/C (second compound 1 µM, first compound 10 µM) was 49% and the viability, T/C [20] was 69.1%. The viability, T/C [21] was 60.4%, the viability, T/C [22] was 58.2% and the viability, T/C [23] was 39.7%. It also gave a viability, T/C [24] of 35.9% and a viability, T/C (second compound 3.16 µM, first compound 10 µM) of 39%.
With Cn1nccc1Nc1nccc(-c2cc3c(s2)C(C)(C)N(CCN2CCOCC2)C3=O)n1 the viability, T/C (compound 0.1 µM) was 96.5% [middle of 5 runs], the viability, T/C (compound 0.316 µM) was 86.1% [middle of 5 runs] and the viability, T/C (compound 1 µM) was 79.7% [middle of 5 runs]. The viability, T/C (compound 3.16 µM) was 54.2% [middle of 5 runs] and the viability, T/C (compound 10 µM) was 49.9% [middle of 5 runs].
With CC(=O)Nc1cccc(-n2c(=O)n(C3CC3)c(=O)c3c(Nc4ccc(I)cc4F)n(C)c(=O)c(C)c32)c1 the viability, T/C (compound 0.0001 µM) was 95.5% [middle of 5 runs], the viability, T/C (compound 0.000316 µM) was 85.5% [middle of 5 runs] and the viability, T/C (compound 0.00316 µM) was 68.5% [middle of 5 runs]. For the same compound, the viability, T/C (compound 0.01 µM) was 54.7% [middle of 5 runs], the viability, T/C (compound 0.0316 µM) was 21.5% [middle of 5 runs] and the IC50 (curve of compound) was 9.31 nM [middle of 5 runs].
Work on CC(=O)OC12COC1CC(O)C1(C)C(=O)C(O)C3=C(C)C(OC(=O)C(O)C(NC(=O)OC(C)(C)C)c4ccccc4)CC(O)(C(OC(=O)c4ccccc4)C21)C3(C)C (stereo unspecified) + CNCc1ccccc1-c1csc(C(C)Nc2nc(C)nc3cc(OC)c(OC)cc23)c1 yielded an IC50 [1] greater than 3160 nM, an IC50 [2] greater than 3160 nM and an IC50 [3] greater than 3160 nM. It also gave an IC50 [4] of 21.6 nM, an IC50 [25] of less than 10 nM and a viability, T/C [26] of 102%. For the same compound, the viability, T/C [5] was 96.3%, the viability, T/C [6] was 83.4% and the viability, T/C [7] was 81.1%. For the same compound, the viability, T/C [8] was 105%, the viability, T/C [9] was 87.5% and the viability, T/C [27] was 92%. The viability, T/C [10] was 86.1%, the viability, T/C [11] was 77% and the viability, T/C [12] was 87.8%. For the same compound, the viability, T/C [13] was 93.8%, the viability, T/C [14] was 95.7% and the viability, T/C [28] was 103%. The viability, T/C [15] was 91.4%, the viability, T/C [16] was 89.9% and the viability, T/C [17] was 111%. The viability, T/C [18] was 119%, the viability, T/C [19] was 117% and the viability, T/C [29] was 105%. For the same compound, the viability, T/C [20] was 0.58%, the viability, T/C [21] was 5.25% and the viability, T/C [22] was 1.73%. For the same compound, the viability, T/C [23] was 1.78%, the viability, T/C [24] was 104% and the viability, T/C [30] was 4.38%. For the same compound, the viability, T/C [31] was 2.71%, the viability, T/C [32] was 6.51% and the viability, T/C [33] was 1.17%. The viability, T/C [34] was 110% and the viability, T/C (second compound 10 µM, first compound 3.16 µM) was 0.46%.
With CCN1CCN(Cc2ccc(Nc3ncc(F)c(-c4cc(F)c5nc(C)n(C(C)C)c5c4)n3)nc2)CC1 + CC1OCC2(CCN(c3cnc(Sc4ccnc(N)c4Cl)c(N)n3)CC2)C1N the IC50 [1] was greater than 1000 nM, the IC50 [2] was greater than 1000 nM and the IC50 [3] was greater than 1000 nM. For the same compound, the IC50 [4] was greater than 1000 nM, the IC50 [25] was greater than 1000 nM and the viability, T/C [35] was 89.9%. It also gave a viability, T/C [26] of 99.2%, a viability, T/C [5] of 87% and a viability, T/C [6] of 76.5%. For the same compound, the viability, T/C [7] was 93.5%, the viability, T/C [8] was 111% and the viability, T/C [36] was 81.3%. It also gave a viability, T/C [27] of 89.6%, a viability, T/C [10] of 80.7% and a viability, T/C [11] of 85.6%. The viability, T/C [12] was 104%, the viability, T/C [13] was 99.5% and the viability, T/C [37] was 83.7%. The viability, T/C [28] was 86%, the viability, T/C [15] was 69.3% and the viability, T/C [16] was 72.3%. The viability, T/C [17] was 93.4%, the viability, T/C [18] was 67% and the viability, T/C [38] was 74.5%. For the same compound, the viability, T/C [29] was 66.5%, the viability, T/C [20] was 68.8% and the viability, T/C [21] was 62.8%. It also gave a viability, T/C [22] of 54.7%, a viability, T/C [23] of 70% and a viability, T/C [39] of 51.2%. The viability, T/C [30] was 71%, the viability, T/C [31] was 58.7% and the viability, T/C [32] was 53.6%. It also gave a viability, T/C [33] of 64.6% and a viability, T/C [34] of 63%.
In the case of CCN1CCN(Cc2ccc(Nc3ncc(F)c(-c4cc(F)c5nc(C)n(C(C)C)c5c4)n3)nc2)CC1, the viability, T/C (compound 0.01 µM) is reported as 92.1% [middle of 5 runs], the viability, T/C (compound 0.1 µM) is reported as 82.8% [middle of 5 runs] and the viability, T/C (compound 0.316 µM) is reported as 95.5% [middle of 5 runs]. The viability, T/C (compound 1 µM) was 106% [middle of 5 runs] and the IC50 (curve of compound) was greater than 1000 nM.
With CN(C)C/C=C/C(=O)Nc1cc2c(Nc3ccc(F)c(Cl)c3)ncnc2cc1O[C@H]1CCOC1 + COc1cc2nc(C)nc(NC(C)c3cc(N)cc(C(F)(F)F)c3)c2cc1OC1CCOC1 the IC50 [1] was greater than 100 nM, the IC50 [2] was greater than 100 nM and the IC50 [3] was greater than 100 nM. It also gave an IC50 [4] greater than 100 nM, an IC50 [25] greater than 100 nM and a viability, T/C (second compound 0.1 µM, first compound 0.000316 µM) of 99.4%. The viability, T/C (second compound 0.1 µM, first compound 0.001 µM) was 95.6%, the viability, T/C [35] was 77.4% and the viability, T/C [26] was 86.9%. It also gave a viability, T/C [5] of 79.8%, a viability, T/C [6] of 80.2% and a viability, T/C (second compound 0.316 µM, first compound 0.000316 µM) of 80%. It also gave a viability, T/C (second compound 0.316 µM, first compound 0.001 µM) of 82.9%, a viability, T/C [36] of 71.7% and a viability, T/C [27] of 61.1%. It also gave a viability, T/C [10] of 68.5%, a viability, T/C [11] of 74% and a viability, T/C (second compound 1 µM, first compound 0.000316 µM) of 86.1%. It also gave a viability, T/C (second compound 1 µM, first compound 0.001 µM) of 107%, a viability, T/C [37] of 87.9% and a viability, T/C [28] of 83.8%. It also gave a viability, T/C [15] of 71.4%, a viability, T/C [16] of 67.5% and a viability, T/C (second compound 3.16 µM, first compound 0.000316 µM) of 64.4%. The viability, T/C (second compound 3.16 µM, first compound 0.001 µM) was 66.9%, the viability, T/C [38] was 74.7% and the viability, T/C [29] was 63%. The viability, T/C [20] was 56%, the viability, T/C [21] was 66.3% and the viability, T/C (second compound 10 µM, first compound 0.000316 µM) was 65%. The viability, T/C (second compound 10 µM, first compound 0.001 µM) was 69%, the viability, T/C [39] was 67.4% and the viability, T/C [30] was 65.5%. The viability, T/C [31] was 63.6% and the viability, T/C [32] was 63.4%.
